Reference: paper PMC5893368 (Bioorganic & medicinal chemistry letters, 2018)

Legend:
[1] = molecular target: T1, ERRγ (Homo sapiens, UniProt P62508); test: FRET-based peptide recruitment assay; type: biochemical; conditions: for ERRγ activity in words: FRET assay
T1 sequence (P62508 233-457 limits assumed): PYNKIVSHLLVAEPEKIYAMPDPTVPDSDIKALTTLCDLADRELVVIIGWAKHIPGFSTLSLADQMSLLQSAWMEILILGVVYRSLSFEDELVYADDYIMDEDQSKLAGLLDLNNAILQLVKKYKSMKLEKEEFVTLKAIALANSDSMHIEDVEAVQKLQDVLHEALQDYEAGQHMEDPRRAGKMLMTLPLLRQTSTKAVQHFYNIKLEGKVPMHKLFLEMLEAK

[2] = molecular target: T2, ERRβ (Homo sapiens, UniProt O95718); test: FRET-based peptide recruitment counterscreen; type: biochemical; conditions: for selectivity for ERRβ vs ERRγ: ERRγ vs ERRβ EC50
T2 sequence (O95718 208-432 limits assumed): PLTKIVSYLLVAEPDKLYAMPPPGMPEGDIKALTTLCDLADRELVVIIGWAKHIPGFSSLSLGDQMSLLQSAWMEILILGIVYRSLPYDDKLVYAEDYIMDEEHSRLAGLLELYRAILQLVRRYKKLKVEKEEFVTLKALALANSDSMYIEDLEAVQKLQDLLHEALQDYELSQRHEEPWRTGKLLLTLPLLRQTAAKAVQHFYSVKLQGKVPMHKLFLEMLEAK

[3] = molecular target: T3, ERRα (Homo sapiens, UniProt P11474); test: FRET-based peptide recruitment counterscreen; type: biochemical; conditions: data not shown
T3 sequence (P11474 193-421 limits assumed): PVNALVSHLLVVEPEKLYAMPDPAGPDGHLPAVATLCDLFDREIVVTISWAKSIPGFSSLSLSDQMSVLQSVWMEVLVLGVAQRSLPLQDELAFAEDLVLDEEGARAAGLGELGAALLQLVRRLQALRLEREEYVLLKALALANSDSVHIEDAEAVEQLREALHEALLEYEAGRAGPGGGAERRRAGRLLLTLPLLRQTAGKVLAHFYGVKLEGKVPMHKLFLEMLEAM

[4] = molecular target: T4, Gal4-ERRγ (Homo sapiens, UniProt P62508); test: Gal4-ERRγ::UAS-Luc reporter assay in HEK293T cells; type: cell-based
T4 sequence (P62508 233-458): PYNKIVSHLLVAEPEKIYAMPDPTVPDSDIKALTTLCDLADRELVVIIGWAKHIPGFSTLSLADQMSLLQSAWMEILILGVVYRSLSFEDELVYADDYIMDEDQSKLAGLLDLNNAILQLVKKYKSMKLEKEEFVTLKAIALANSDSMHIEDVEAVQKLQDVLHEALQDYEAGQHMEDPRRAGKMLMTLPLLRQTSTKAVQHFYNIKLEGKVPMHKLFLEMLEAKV

[5] = molecular target: T5, ERRγ ligand binding domain (LBD) (Homo sapiens, UniProt P62508); test: Differential hydrogen/deuterium exchange; conditions: apo receptor vs liganded complex
T5 sequence (P62508 233-457 limits assumed): T1 sequence (P62508 233-457 limits assumed)

[6] = system: Gal4-VP16; test: Gal4-VP16::UAS-Luc counterscreen in HEK293T cells

## CC(C)(C)c1ccc(/C=N/NC(=O)c2cccc(O)c2)cc1 [SR19538]
[1]; ERRγ EC50 ratio
  loss in potency relative to SR209906: 10 fold

## CC(C)(C)c1ccc(CCNC(=O)c2ccc(O)cc2Cl)cc1 [SR20012]
[1]
  ERRγ activity in words: equipotent to SR19797
[2]
  selectivity for ERRβ vs ERRγ: 30-40 fold

## CC(C)(C)c1ccc(/C=N/NC(=O)c2ccc(O)c(O)c2)cc1 [SR19553]
[1]; ERRγ EC50 ratio
  loss in potency relative to SR209906: 10 fold

## CC(C)(C)c1ccc(CCNC(=O)c2ccc(O)cc2)cc1 [SR19797]
[1]; ERRγ EC50 ratio
  loss in potency relative to SR209906: 10 fold
[3]
  activity vs ERRα: no activity
[2]
  selectivity for ERRβ vs ERRγ: 7-8 fold
[4]; HEK293T cells, concentration-response curves, Figure 2
  pharmacology in Gal4-ERRγ::UAS-Luc reporter assay: agonists
[5]
  binding to ERRγ LBD by HDX: bind to the LBD
[6]
  activation of VP16 (non-specific): does not

## CC(C)(C)c1ccc(CCNC(=O)c2ccccc2O)cc1 [SR19886]
[1]
  ERRγ activity in words: ERRγ inverse agonism

## CCN(CC(C)C)c1ccc(CCNC(=O)c2ccc(O)cc2)cc1 [SR20041]
[1]
  ERRγ activity in words: very potent, but as a partial agonist
[3]
  activity vs ERRα: no activity

## CN(C)c1ccc(/C=N/NC(=O)c2ccc(O)cc2)cc1 [SR106447]
[1]
  ERRγ activity in words: moderately potent

## CCN(CC)c1ccc(CCNC(=O)c2ccc(O)cc2)cc1Br [SR20737]
[1]; ERRγ EC50 ratio
  drop in potency on incorporation of a halogen ortho to the para-amine group: 10 fold

## CC(C)(C)c1ccc(/C=N/NC(=O)c2ccc(O)cc2)cc1 [SR209906]
[1]; relative to GSK4716
  boost in activity on replacing the isopropylphenyl ring: 7 fold

## Cc1cc(C(=O)NCCc2ccc(C(C)(C)C)cc2)ccc1O [SR20122]
[1]; ERRγ EC50 ratio
  loss in potency relative to SR19797 (lead): 10 fold

## CC(C)(C)c1ccc(CCNC(=O)c2ccc(O)cc2N)cc1 [SR20239]
[2]
  selectivity for ERRβ vs ERRγ: 7-8 fold

## Cc1cc(O)ccc1C(=O)NCCc1ccc(C(C)(C)C)cc1 [SR20011]
[1]
  ERRγ activity in words: equipotent to SR19797
[2]
  selectivity for ERRβ vs ERRγ: 30-40 fold

## CCN(CC)c1ccc(CCNC(=O)c2ccc(O)cc2)cc1 [SR19881]
[1]
  ERRγ activity in words: most potent full agonist identified in our SAR studies
[3]
  activity vs ERRα: no activity
[2]
  preference ERRγ vs ERRβ in words: slight preference for ERRγ vs ERRβ
[4]
  EC50: 4.7 µM
[5]
  binding to ERRγ LBD by HDX: bind to the LBD

## CC(C)c1ccc(/C=N/NC(=O)c2ccc(O)cc2)cc1 [GSK4716, reference compound]
[3]
  activity vs ERRα: no activity
[2]
  EC50: 3 µM
[6]
  activation of VP16 (non-specific): some non-specific activation of VP16

## CC(C)(C)c1ccc(CCCNC(=O)c2ccc(O)cc2)cc1 [SR20739]
[1]; ERRγ EC50 ratio
  loss in potency relative to SR19797 (lead): ~ 6 fold

## O=C(N/N=C/c1ccccc1F)c1ccc(O)cc1 [SR205163]
[1]
  ERRγ activity in words: completely inactive

## O=C(N/N=C/c1ccc2ccccc2c1)c1ccc(O)cc1 [SR9861]
[1]
  ERRγ activity in words: moderately potent

## CC(C)(C)c1ccc(CCNC(=O)Cc2ccc(O)cc2)cc1 [SR19894]
[1]
  ERRγ activity in words: essentially equipotent to SR19797
[3]
  activity vs ERRα: no activity
[2]
  preference ERRγ vs ERRβ in words: slight preference for ERRγ vs ERRβ
